Reference: ChEMBL document CHEMBL1129815, “Ester prodrugs of ampicillin tailored for intracellular accumulation” (Bioorg Med Chem Lett, 1997)
Converted amounts (≈) assume the structure as drawn.

Test system: Staphylococcus aureus
Experiment: The minimum inhibition concentration (MIC) against Staphylococcus aureus after hydrolysis 24 hr in phosphate buffer was determined
Assay type: functional
Details: not given

Row | MIC | SMILES
1 | 1.16 µM (≈ 0.627 µg/mL) | CC1(C)S[C@@H]2[C@H](NC(=O)[C@H](N)c3ccccc3)C(=O)N2[C@H]1C(=O)OCN1C(=O)CC(=C2CCCCC2)C1=O [listing 1 of 2 here]
2 | 0.53 µM (≈ 0.27 µg/mL) | CC1(C)S[C@@H]2[C@H](NC(=O)[C@H](N)c3ccccc3)C(=O)N2[C@H]1C(=O)OCN1C(=O)c2ccccc2C1=O [listing 1 of 2 here]
3 | 0.65 µM (≈ 0.301 µg/mL) | CC(C)(C)C(=O)OCOC(=O)[C@@H]1N2C(=O)[C@@H](NC(=O)C(N)c3ccccc3)[C@H]2SC1(C)C (single isomer, unassigned) [PIVAMPICILLIN]

Test system: not listed separately
Experiment: Half-life in 0.02 M phosphate buffer, 0.15 M NaCl, at a pH of 7.4, at 37 degree Celsius was determined
Assay type: ADME
Details: pH 7.4

Row | half-life | SMILES
4 | 2.5 h | CC1(C)S[C@@H]2[C@H](NC(=O)[C@H](N)c3ccccc3)C(=O)N2[C@H]1C(=O)OCn1c(=O)oc2ccccc21
5 | 3 h | CC1(C)S[C@@H]2[C@H](NC(=O)[C@H](N)c3ccccc3)C(=O)N2[C@H]1C(=O)OCN1C(=O)CCCC1=O
6 | 2.5 h | CC1(C)S[C@@H]2[C@H](NC(=O)[C@H](N)c3ccccc3)C(=O)N2[C@H]1C(=O)OCN1C(=O)CCC1=O
7 | 5.13 h | CC1(C)S[C@@H]2[C@H](NC(=O)[C@H](N)c3ccccc3)C(=O)N2[C@H]1C(=O)OCN1C(=O)CC(=C2CCCCC2)C1=O [listing 2 of 2 here]
8 | 1.08 h | CC1(C)S[C@@H]2[C@H](NC(=O)[C@H](N)c3ccccc3)C(=O)N2[C@H]1C(=O)OCN1C(=O)c2ccccc2S1(=O)=O
9 | 3.58 h | CC1(C)S[C@@H]2[C@H](NC(=O)[C@H](N)c3ccccc3)C(=O)N2[C@H]1C(=O)OCOc1ccccc1
10 | 1.08 h | CC1(C)S[C@@H]2[C@H](NC(=O)[C@H](N)c3ccccc3)C(=O)N2[C@H]1C(=O)OCN1C(=O)c2ccccc2C1=O [listing 2 of 2 here]
11 | 2 h | CC(C)(C)C(=O)OCOC(=O)[C@@H]1N2C(=O)[C@@H](NC(=O)C(N)c3ccccc3)[C@H]2SC1(C)C (single isomer, unassigned) [PIVAMPICILLIN]
